Measurements taken from patent US20070218456A1, “CELLULAR ASSAYS FOR SIGNALING RECEPTORS” (INVITROGEN CORPORATION, priority 2006, published 2007).
Read-outs that look alike come from different tables or passages of the source.

What was measured:
[1] = test system: HEK cells; assay: Transient transfection assay, NFAT-bla and CRE-bla HEK, response to LPA; format: cell-based, human; settings: 10 μM LPA
Text: (§1) To begin development of a GPR23 assay in GeneBLAzer® CellSensor™ cell lines (Invitrogen), GPR23 was first tested in a transient transfection assay in the NFAT-bla HEK (Catalog# K1179, Invitrogen), the CRE-bla HEK (Catalog# K1112, Invitrogen), the NFAT-bla CHO-K1 (Catalog# K1078, Invitrogen), the CRE-bla CHO-K1 (Catalog# K1129, Invitrogen), the NFAT-bla Jurkat CellSensor™ cell lines (Catalog# K1077, Invitrogen) and the CRE-bla Jurkat CellSensor™ cell lines (Catalog# K1134, Invitrogen). The hGPR23 expression plasmid was transfected into the cell lines. Lipofectamine 2000 (Invitrogen) was used at a ratio of 0.4 ug of DNA per every uL of Lipofectamine 2000 following manufacturer's directions. After 48 hours the cells were assayed for a response to 10 μM LPA.

[2] = test system: GPR23; assay: LPA responsiveness of T-REx-GPR23 CRE-bla-CHO-K1 clone H6-E2; format: cell-based, human; settings: un-induced cells
Description: (§2) The cells were plated at 20,000 cells per well in a 384 well black walled clear bottom tissue culture assay plate in complete media (DMEM+10% FBS). The plates were then placed at 37° C. 5% CO2 for 6 hrs to allow the cells to attach to the assay plate. The complete media was then removed from the plate and replaced with assay media (DMEM+0.1% BSA) containing 100 ng/ml pertussis toxin and 0.5% DMSO, with or without 10 μg/ml doxycycline. The plates were placed at 37° C. 5% CO2 for 16 hrs to allow the induced expression of the GPR23 receptor. The cells were then stimulated for five hours with a four fold dilution series of LPA starting at 1 μM. The cells were then loaded with LiveBLAzer™-FRET B/G substrate (2 μM) containing solution D for 2 hrs.

[3] = target: T1, GPR23 (Homo sapiens, UniProt Q99677); assay: Perkin Elmer LANCE cAMP assay on T-REx-GPR23-CHO-K1 clones; format: cell-based; parameters: expressed in transfected cells; host or cells: CHO-K1 with tet repressor (T-REx); clones E1 and H6, later CRE-bla subclone H6-E2; settings: read-out: LPA EC50 (cAMP)
T1 sequence (Q99677 whole entry): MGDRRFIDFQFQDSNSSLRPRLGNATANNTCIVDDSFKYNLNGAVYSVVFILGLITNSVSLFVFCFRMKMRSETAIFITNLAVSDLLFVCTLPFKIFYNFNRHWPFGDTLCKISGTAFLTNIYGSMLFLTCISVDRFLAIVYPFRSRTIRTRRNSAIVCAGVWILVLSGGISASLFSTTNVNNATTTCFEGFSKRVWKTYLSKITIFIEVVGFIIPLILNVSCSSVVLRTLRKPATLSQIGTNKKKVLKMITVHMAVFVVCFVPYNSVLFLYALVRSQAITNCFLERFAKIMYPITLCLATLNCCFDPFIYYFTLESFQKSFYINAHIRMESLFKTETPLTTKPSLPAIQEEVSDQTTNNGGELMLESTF
Description: (§3) Two inducible T-RExTM-GPR23-CHO-K1 clones and a parental control (T-RExTM-CHO-K1) were tested using the Perkin Elmer LANCE cAMP assay. The cells were serum starved and induced in growth medium +/-1 μg/ml tetracycline +100 ng/ml pertussis toxin without FBS for 24 hrs prior to the assay. The cells were then harvested using […] assayed for LPA responsiveness using the Perkin Elmer Lance assay according to the manufacture's instructions.

[4] = test system: Jurkat cells; assay: Transient transfection assay, NFAT-bla and CRE-bla Jurkat, response to LPA; format: cell-based; settings: 10 μM LPA
Text: as §1

[5] = test system: hGPR23; assay: LPA dose response on hGPR23-CRE-bla CHO-K1 selected pool; format: cell-based, human; settings: 5 hrs stimulation
Text: An attempt was made to develop a GPR23 assay by stably expressing a human GPR23 (hGPR23) in a CRE-bla CHO-K1 cell line. The CRE-bla CHO-K1 cell line has a non-GPR23 specific endogenous response to LPA (see Example 18), but by adding the human GPR23 to the cells it could have been possible to increase the LPA responsiveness of these cells or create a constitutively active cell line that could be used to screen for inverse agonists of the hGPR23 receptor. The hGPR23 expression plasmid was transfected into the CRE-bla CHO-K1 cell line. Lipofectamine 2000 (Invitrogen) was used at a ratio of 0.4 ug of DNA per every uL of Lipofectamine 2000 following manufacturer's directions.
(§4) A stable pool was selected using Zeocin. LPA dose response on the hGPR23-CRE-bla CHO-K1 selected pool and CRE-bla CHO-K1 cell line was performed. The cells were plated at 50,000 cells per well in a 96 well assay plate in OptiMEM+0.5% FBS and placed at 37° C. 5% CO2 overnight. The cells were then stimulated with a four fold dilution series of LPA in DMEM+0.1% BSA for 5 hrs. and loaded with substrate for 2 hrs.

[6] = test system: T-REx™-CHO-K1; assay: Perkin Elmer LANCE cAMP assay on parental T-REx-CHO-K1; format: cell-based, Chinese hamster; settings: read-out: LPA EC50 (cAMP)
Description: as §3

[7] = target: T1, GPR23; assay: LPA responsiveness of T-REx-GPR23 CRE-bla-CHO-K1 clone H6-E2; format: cell-based; parameters: expressed in transfected cells; host or cells: CHO-K1 with tet repressor (T-REx); clones E1 and H6, later CRE-bla subclone H6-E2
Description: as §2

[8] = target: T1, GPR23; assay: LPA response of stably transfected GPR23-CRE-bla HEK pool; format: cell-based; parameters: expressed in transfected cells; host or cells: CellSensor CRE-bla HEK (Invitrogen K1112), stably selected pool
Description: Assay construction continued in the NFAT-bla and CRE-bla, HEK and Jurkat CellSensor™ cell lines. These cell lines were taken to the point of stably selected pools at which point they were tested for a response to LPA. Only the stably transfected GPR23-CRE-bla HEK pool gave a response to LPA. The response was <1.5 fold but reproducible.

[9] = test system: NFAT and CRE CHO-K1 cell lines; assay: Transient transfection assay, NFAT-bla and CRE-bla CHO-K1, response to LPA; format: cell-based, Chinese hamster; settings: 10 μM LPA; absence of transfected GPR23
Text: as §1

[10] = test system: CRE-bla CHO-K1 cell line; assay: LPA dose response on CRE-bla CHO-K1 cell line; format: cell-based, Chinese hamster; settings: CRE-bla CHO cells; 5 hrs stimulation
Description: as §4

[11] = test system: GPR23; assay: Perkin Elmer LANCE cAMP assay on T-REx-GPR23-CHO-K1 clones; format: cell-based, human; settings: un-induced, read-out: LPA EC50 (cAMP)
Description: as §3

EC50 ([3]; E1 clone induced (1 μg/ml tetracycline)): 30.3 nM
EC50 ([3]; H6 induced (1 μg/ml tetracycline)): 13.8 nM
EC50 [5]: 258 nM
response of the cells to LPA ([7]; induced cells): 2.3 fold
EC50 ([7]; induced cells (10 μg/ml doxycycline, 16 hrs), LPA five hours): 2.3 nM
response to LPA [8]: < 1.5 fold
EC50 ([11]; E1 clone): 2000 nM
EC50 ([11]; H6 clone): 1500 nM
Substance: 1 or 2-acyl-sn-glycero-3-phosphate [LPA]
response to LPA ([1]; GPR23 transfected CRE-bla HEK cell line): only a small response
response to LPA ([1]; endogenous (untransfected)): no endogenous response
response of the cells to LPA [2]: 9 fold
response to LPA ([4]; GPR23 transfected cells): no response
response to LPA ([4]; endogenous (untransfected)): no endogenous response
EC50 ([6]; parent induced (1 μg/ml tetracycline)): 915 nM
EC50 ([6]; parent, un-induced): 5000 nM
response to LPA [9]: positive response
EC50 [10]: 239 nM
